The subject of data set [1] is C. elegans. The conditions noted are these: total GFP area, days 3 and 7 post chemical exposure.
For data set [2], the system named is C. elegans strain PE254. The data set is described as follows: C. elegans LSC qHTS viability assay, Anti-Infectives library primary screen (BG-fed, 384-well). The format is in vivo, Caenorhabditis elegans. Particulars: for activity on C. elegans viability in primary qHTS (in words): seven-point titration, GFP area. How it is done:
Levamisole, ivermectin and albendazole were purchased from Sigma-Aldrich. Stock solutions of all compounds were prepared at 10 mM in DMSO, and ivermectin was diluted to a 10 µM working dilution in DMSO. […] Of these, 284 (38%) are approved for clinical use in the United States, 32 (4%) were previously marketed for use in the United States, and 62 (8%) are used clinically outside of the United States. […] DMSO stock solutions of were arrayed in Echo-qualified 384-well cyclic olefin copolymer plates (Labcyte) in qHTS inter-plate dilution with seven concentrations, 1:5 dilution, resulting in a final concentration range of 2.5–20 mM high concentration titrated to 160 nM to 1.28 µM low concentration ([Yasgar et al., 2008]). ‘Assay-ready’ plates were prepared in 384-well uClear microtiter plates (Greiner BioOne), with compounds acoustically dispensed at 250 nl per well with an Echo 555 in the above inter-plate titration array. Two plates with DMSO added across the compound field at the same volume were prepared as screening controls (‘uniformity plates’). DMSO vehicle control was added to every well of column 1, and levamisole cytotoxicity control was added at a high concentration of 10 mM in wells 1–8 and titrated 1:3, starting at a high concentration of 10 mM to 4.57 µM in wells 9–16 of column 2 of every plate. Additionally, ivermectin, levamisol and albendazole were plated as internal controls on one assay plate in 16-point, 1:2 titration down six replicate columns per compound, starting at a high concentration of 10 µM (ivermectin) or 10 mM (levamisole and albendazole). Assay-ready plates were sealed and frozen at −80°C until use.
C. elegans strain PE254 were collected from 12 NGM plates as above, transferred to 250 ml S medium supplemented with OP50 E. coli pellet collected from 2 l overnight culture, and grown for 5 days at 21°C with vigorous shaking in an Incu-Shaker Mini Shaking Incubator (Benchmark Scientific, Inc.). Eggs were axenized as above and hatched overnight in M9 buffer at 21°C and shaken at 65 rpm. Assay ready plates were thawed and allowed to equilibrate to ambient temperature. BGs in S medium (30 µl/well) at an OD600=0.85 were manually added across plates with a Capp pipette. Synchronized L1 worms from above were collected, diluted and plated at ten worms/30 µl/well with a Capp pipette into assay-ready microtiter plates pre-plated with BGs and compounds (240-fold dilution). […] No ethical approval or guidance is needed for working with nematodes.
Data from the Anti-Infectives screen were normalized by plate to corresponding intra-plate controls as previously described ([Inglese et al., 2006]). Assay statistics were calculated using the same respective controls. Total object ‘GFP’ area (µm^2) and number of worms were normalized to the average signal of DMSO-treated wells as zero percent neutral control, and the average signal of 41.7 µM levamisole-treated wells as −100% activity. In-house software was used to fit the resulting inter-plate titration data to the standard Hill equation, and concentration–response curves were classified by activity as previously described ([Southall et al., 2009]). Curve fits assignments of −1.1, −1.2, −2.1, −2.2 and −3 were considered active and visually confirmed.

Data set [3] has as its system C. elegans strain PE254. The data set is described as follows: 384-well LSC C. elegans viability assay, life-stage sorted worms on BGs or OP50 live bacteria (assay development). Format: in vivo, Caenorhabditis elegans.
Experimental: Strain PE254 worms were collected from eight NGM plates as above. The mixed population of C. elegans was resuspended in 30 ml 1× S basal buffer and plated at ten GFP worms per well of each life stage into respective wells of 384-well uClear microtiter plates with the COPAS biosorter run with the calibration protocol and settings from above. E. coli BGs diluted to OD600=0.6 or OP50 live bacteria diluted to OD600=0.05, 0.10, 0.15 or 0.2 in S medium were added to respective plates at 30 μl per well manually with a Capp pipette (BioVentures, Inc.). […] Plates were covered with a Breath-Easy seal (Thermo Fisher Scientific) and weighted metal lids with gas exchange pores (Fujifilm Wako Automation Corp.). Worms were grown in the presence of compound or DMSO for 7 days at 21°C and 65 rpm in an Incu-Shaker (Benchmark Scientific). Worms were imaged every 24–72 h on an Acumen eX3 laser scanning cytometer (STP Labtech). Plates were read with default reader settings, with scan 1 488 nm laser, green (FL-2) detection channel, 400 voltage, sensitivity of 2 and triggered in the green PMT. Green objects detected by the reader were identified as worms based on the filtered FL-2 object parameters perimeter (100-2200), area (1000-180,000), and peak intensity (150-1500). Viability was monitored as an increase in GFP fluorescence quantified as total number and total object area (µm^2) of FL-2 filtered objects per well. LSC data were collected using cellista 4 (version 4.3.4.0, STP Labtech).
Concentration–response curves for average total filtered FL-2 object area (‘GFP area’) and total filtered FL-2 number of objects (‘number of worms’) for each respective compound were fit with the nonlinear regression log (agonist) versus response–variable slope (four parameters) algorithm in Prism (GraphPad Software). Hillslope and/or EC50 constraints were applied as needed to all life stages per compound across the 7-day time course, and EC50 values were calculated. […] (3) [drawing 3] where σ is the mean signal and µ is the standard deviation for the treated (p) or neutral (n) controls.
Data set [4] deals with C. elegans. On the set-up: method as in Sant'anna et al., 2013. The conditions noted are these: all life stages, post 7-day treatment; ref Sant'anna et al., 2013; read-out: EC50 (toxic); cited from earlier work.
Data set [5] deals with HEK293 cells. Put plainly: HEK293 cell viability (CellTiter-Glo, ATP levels). Particulars: Homo sapiens, 24 h post-treatment, screening control, 14 replicate wells. Format: cell-based. How it is done: Mammalian cell toxicity was evaluated in HEK293 cells (ATCC) using ATP levels as an indicator of metabolically active cells. Assays were performed in 1536-well plates (Greiner white/solid bottom, high base), and luminescence measurements were made on a ViewLux (Perkin Elmer) ([Martinez et al., 2021]; [Solinski et al., 2019]). Assay-ready plates in 1536-well format were prepared as above using the 384-well Echo-compatible source plates; 25 nl of a seven-point titration with 1:5 dilution starting at a high concentration of 2.5–20 mM of compound was added to respective wells with an Echo 555 acoustic dispenser. A titration of digitonin, 20 mM to 610 nM in DMSO (83.3 µM to 2.5 nM final assay concentration), was used as an intraplate cell toxicity control titration. DMSO vehicle and 83.3 μM digitonin final concentration (64 or 32 replicate wells per assay plate, respectively) were used to establish the assay signal window. Plates were stored at −80°C until use and equilibrated to ambient temperature prior to cell dispense. Then, 1500 cells were added at 6 μl assay volume/well (240-fold dilution) across plates with a Multidrop Combi dispenser (Thermo Fisher Scientific) in standard Dulbecco's modified Eagle medium. Cell viability-dependent luminescence levels were read following the addition of 4 μl CellTiter-Glo (Promega) after 24 h incubation with the test compound.

The test system of data set [6] is C. elegans strain PE254. The data set is described as follows: Follow-up 11-point re-test, C. elegans LSC viability. Format: in vivo, Caenorhabditis elegans. Particulars: day 7, screening control in re-test, 4 replicate wells. How it is done:
C. elegans strain PE254 were collected from six NGM plates and washed. […] Assay-ready plates were prepared as above with an 11-point, 1:3 titration of 96 compounds identified as active from the qHTS screen based on curve classification and maximum response. […] Data were normalized as above, and concentration–response curves were fit in Prism with nonlinear regression log(agonist) versus response–variable slope (four parameters) fit.

[7] abbreviates: treatment day 2, internal control, 16-point titration, six replicate wells, read-out: Treatment day, EC50 (GFP area).
Where [8] appears, read: treatment day 3, internal control, 16-point titration, six replicate wells, read-out: Treatment day, EC50 (GFP area).
Where [9] appears, read: treatment day 4, internal control, 16-point titration, six replicate wells, read-out: Treatment day, EC50 (GFP area).
[10] abbreviates: treatment day 5, internal control, 16-point titration, six replicate wells, read-out: Treatment day, EC50 (GFP area).
Setting [11] is: treatment day 6, internal control, 16-point titration, six replicate wells, read-out: Treatment day, EC50 (GFP area).
Setting [12] is: treatment day 7, internal control, 16-point titration, six replicate wells, read-out: Treatment day, EC50 (GFP area).

`CCOCn1c(-c2ccc(Cl)cc2)c(C#N)c(Br)c1C(F)(F)F` [Chlorfenapyr, chlorfenapyr]: in data set [1], the “activity in Tox21 sub-library C. elegans qHTS (in words)” value is on record as “identified”.
For the molecule `CCCSc1ccc2nc(NC(=O)OC)[nH]c2c1` [Albendazole], the EC50 in data set [2] (Caenorhabditis elegans, 72 h, read-out: Treatment day, EC50 (GFP area)) was 200 ± 300 nM; in data set [2] (Caenorhabditis elegans, 96 h, read-out: Treatment day, EC50 (GFP area)) it was 800 ± 700 nM; in data set [2] (Caenorhabditis elegans, 120 h, read-out: Treatment day, EC50 (GFP area)) it was 900 ± 400 nM; in data set [2] (Caenorhabditis elegans, 144 h, read-out: Treatment day, EC50 (GFP area)), 800 ± 400 nM; in data set [2] (Caenorhabditis elegans, 168 h, read-out: Treatment day, EC50 (GFP area)), 1100 ± 600 nM; in data set [4], more than 10000 nM. The “toxicity (in words)” value in data set [3] (worms grown on BGs, as early as day 1 for L4 and adult worms, by day 2 for most life stages) is on record as “significant toxicity”.
For the molecule Ivermectin, the “activity on C. elegans viability in primary qHTS (in words)” value in data set [2] is on record as “active”. Also, the EC50 in data set [2] (setting [7]) worked out at 17 ± 3.9 nM; in data set [2] (setting [8]), 16.9 ± 2.3 nM; in data set [2] (setting [9]) it was 14 ± 1.7 nM; in data set [2] (setting [10]) it was 14.6 ± 1.1 nM; in data set [2] (setting [11]) it was 13.6 ± 1.1 nM; in data set [2] (setting [12]) it was 12.4 ± 1.2 nM. Besides, the EC50 in data set [3] (all life stages grown on BGs, by day 1, read-out: half-maximal effective concentration (EC50)) was approximately 1 nM.
`C[C@@H]1CC[C@@]2(OC1)O[C@H]1[C@@H](O)[C@H]3[C@@H]4CC[C@H]5C[C@@H](O[C@@H]6O[C@H](CO)[C@H](O[C@@H]7O[C@H](CO)[C@@H](O)[C@H](O[C@@H]8OC[C@@H](O)[C@H](O)[C@H]8O)[C@H]7O[C@@H]7O[C@H](CO)[C@H](O)[C@H](O[C@@H]8O[C@H](CO)[C@@H](O)[C@H](O)[C@H]8O)[C@H]7O)[C@H](O)[C@H]6O)[C@H](O)C[C@]5(C)[C@H]4CC[C@]3(C)[C@H]1[C@@H]2C` [Digitonin, digitonin]: the EC50 in data set [5] came out at 31300 nM.
`Clc1ccc(C(c2ccc(Cl)cc2)C(Cl)(Cl)Cl)cc1` [DDT, dichlorodiphenyltrichloroethane]: the “activity in Tox21 sub-library C. elegans qHTS (in words)” value in data set [1] is “potent activity”.
In the case of `c1ccc([C@H]2CN3CCSC3=N2)cc1` [Levamisole], the EC50 in data set [2] (day 3, intra-plate screening control, averaged from 21 replicates, normalized to 41.7 μM levamisole, read-out: EC50 (GFP area)) was determined as 9370 ± 930 nM; in data set [2] (day 3, intra-plate screening control, averaged from 21 replicates, read-out: EC50 (number of worms)), 5960 ± 2400 nM; in data set [2] (day 7, intra-plate screening control, averaged from 21 replicates, read-out: EC50 (GFP area)) it was 7990 ± 1440 nM; in data set [2] (day 7, intra-plate screening control, averaged from 21 replicates, read-out: EC50 (number of worms)), 5740 ± 910 nM; in data set [2] (setting [7]) it was 12700 ± 4700 nM; in data set [2] (setting [8]), 14000 ± 5500 nM. The EC50 in data set [2] (setting [9]) turned out to be 5600 ± 1500 nM; in data set [2] (setting [10]) it was 5300 ± 600 nM; in data set [2] (setting [11]), 4900 ± 400 nM; in data set [2] (setting [12]), 5000 ± 800 nM; in data set [6] (read-out: EC50 using #worms), 2450 nM; in data set [6] (read-out: EC50 using GFP area), 2230 nM. In data set [2], the “activity on C. elegans viability in primary qHTS (in words)” value was “active”. Also, in data set [3] (all life stages, both media (BGs and live bacteria), 7-day time course), the “EC50 values (in words)” value is “low-micromolar range”.

The record behind these values is PMC10067442, “In vivo quantitative high-throughput screening for drug discovery and comparative toxicology” (Disease Models & Mechanisms, 2023).
